From patent publication US20100286415A1, “SLEEP-IMPROVING AGENT” (OSAKA BIOSCIENCE INSTITUTE, priority 2007, published 2010) come the findings set out here.

For one data set, the system named is Sprague-Dawley rats. Put plainly: EEG/EMG sleep recording in rats after oral administration (Test Example 1). It counts as in vivo, rat. The conditions noted are these: 100 mg/kg oral, administered at start of dark period, compared to vehicle (water), FIG. 1. On the procedure:
Sprague-Dawley rats (male, 8 weeks old, weighing 250-280 g) were purchased from Japan SLC, Inc.
The rats were individually housed in acrylic cages placed in a sound insulation chamber. They were given solid rat food (food name: Labo MR Stock) in a 12-hour light and dark cycle (light period starting at 7 a.m.), with free access to food and drinking water.
An operation to implant electrodes for measuring EEG/EMG was performed on the rats (Huang Z. L. et al., J. Neurosci. 2003, 23(14), 5975-83., Okada T. et al., Biochem. Biophys. Res. Commun. 2003, 312(1), 29-34). The rats were placed in a chamber for recovery for 10 days, and recovered. Then, the rats were moved to a chamber for recording, and measurement cables were connected to the electrodes. The rats were adapted to the environment for 4 days.
Oxypinnatanine was dissolved in water, and a dosage of 100 mg/kg was orally administered using a probe. Administration was carried out at 19:00 (starting time of a dark period). […]
The EEG and EMG were amplified (EEG: 0.5-30 Hz, EMG: 20-200 Hz), and then digitalized at a sampling speed of 128 Hz for recording. […] EEG data over 12 hours after administration were analyzed. Then, waking time, non-REM sleep time, and REM sleep time per hour were calculated. Further, the EEG power spectrum was analyzed, and the amplitudes of theta waves and delta waves were thereby analyzed.

The subject of a further data set is Slc:ICR mice. Put plainly: Locomotor assay (amount of locomotion) in mice, infrared monitor (Test Example 2). The class given is in vivo, mouse. To be noted: 100 mg/kg oral, administered at start of dark period, compared to vehicle (water), FIG. 2. The protocol:
Slc:ICR mice (male, 10 weeks old, weighing 38-40 g) were purchased from Japan SLC, Inc.
The mice were housed in groups (8 mice per group) in acrylic cages placed in a chamber for monitoring the amount of animal behavior, and were habituated for 7 days. They were given solid rat food (food name: Labo MR Stock) in a 12-hour light and dark cycle (light period starting at 7 a.m.), with free access to food and drinking water.
Oxypinnatanine was dissolved in water, and a dosage weight of 100 mg/kg was orally administered using a probe. Administration was carried out at 19:00 (starting time of a dark period). On day 1, water was solely administered as a control containing only the solvent. On day 2, oxypinnatanine was administered (n=8).
An infrared monitor was used to detect infrared light emitted from the animals to count the amount of locomotion. The infrared monitor recorded continuously for 12 hours. Recording was conducted using a Biotex 16CH Act Monitor BAI2216 (Biotex). For analysis, the time-dependent change in the amount of locomotion and the total amount of locomotion in each hour were calculated.

The next data set has as its system C57BL/6 mice. The experiment in a line: EEG/EMG sleep recording in mice after oral administration (Test Example 3). The class given is in vivo, mouse. The conditions noted are these: 10 mg/kg oral, administered at start of dark period, compared to vehicle (water), FIG. 3. The protocol: C57BL/6 mice (male, 10 weeks old, weighing 25-28 g) were purchased from Oriental BioService Inc.
The mice were individually housed in acrylic cages placed in a sound insulation chamber. They were given solid mouse food (food name: Labo MR Stock) in a 12-hour light and dark cycle (light period starting at 8 a.m.), with free access to food and drinking water.
An operation to implant electrodes for measuring EEG/EMG was performed on the mice. The mice were placed in a chamber for recovery for 10 days, and recovered. Then, the mice were moved to a chamber for recording, and measurement cables were connected to the electrodes. The mice were adapted to the environment for 4 days.
Oxypinnatanine was dissolved in water, and a dosage of 10 mg/kg was orally administered using a probe. Administration was carried out at 20:00 (starting time of a dark period). On day 1, water was solely administered as a control containing only the solvent. On day 2, oxypinnatanine was administered (n=4).
The EEG and EMG were amplified (EEG: 0.5-30 Hz, EMG: 20-200 Hz), and then digitalized at the sampling speed of 128 Hz for recording. […] EEG data over 12 hours after administration were analyzed. Then, waking time, non-REM sleep time, and REM sleep time per hour were calculated. Further, the EEG power spectrum was analyzed, and the amplitudes of theta waves and delta waves were thereby analyzed.

Usually melting point stands for the temperature, or range, at which the solid turns liquid.

Consider `NC(CC(O)C(=O)NC1OCC=C1CO)C(=O)O` (stereo not shown) (hydrate or solvate) [Oxypinnatanine, oxypinnatanine], for which the melting point was 152 to 153 °C (dec.).

As for `NC(CC(O)C(=O)NC1OCC=C1CO)C(=O)O` (stereo not shown) [Oxypinnatanine, oxypinnatanine], the “Total non-REM sleep time during 6 hours after administration” value in the data set with Sprague-Dawley rats was “effect of increasing non-REM sleep time”. In the data set with Slc:ICR mice, the “Total amount of locomotion during 6 hours after administration” value is recorded as “statistically significant decrease in the amount of locomotion”. In addition, the “Total non-REM sleep time during 4 hours after administration” value in the data set on C57BL/6 mice is listed as “effect of increasing non-REM sleep time with statistical significance”.
